Assay results as given in ChEMBL document CHEMBL3870340, “Cytotoxic activity, apoptosis induction and structure-activity relationship of 8-OR-2-aryl-3,4-dihydroisoquinolin-2-ium salts as promising anticancer agents” (Bioorg Med Chem Lett, 2017).

How the values were obtained:
[1] = Cytotoxicity against human MKN45 cells assessed as decrease in cell viability after 48 hrs by MTT assay; type: functional, cell-based; conditions: MKN-45, 48 h
[2] = Antiproliferative activity against human NB4 cells at 5 uM after 48 hrs by MTT assay relative to control; type: functional; conditions: NB-4, 48 h, read-out: GI
[3] = Cytotoxicity against human NB4 cells assessed as decrease in cell viability after 48 hrs by MTT assay; type: functional, cell-based; conditions: NB-4, 48 h
[4] = Antiproliferative activity against human MKN45 cells at 20 uM after 48 hrs by MTT assay relative to control; type: functional; conditions: MKN-45, 48 h, read-out: GI

**Q.** For COc1cccc2c1C=[N+](c1ccc(F)cc1)CC2, which IC50 [1] is on record?
**A.** 21 µM

**Q.** And the inhibition of growth at 5 µM [2]?
**A.** 40.2%

**Q.** What about the IC50 [3] of the same molecule?
**A.** 23.8 µM

**Q.** What about the inhibition of growth at 20 µM [4] of the same molecule?
**A.** 53%

**Q.** Which results are given for COc1cccc2c1C=[N+](c1ccccc1)CC2?
**A.** inhibition of growth at 5 µM [2]: 20.5%; inhibition of growth at 20 µM [4]: 14.4%

**Q.** For COc1cccc2c1C=[N+](c1cc(Cl)cc(Cl)c1)CC2, which IC50 [1] is on record?
**A.** 3.61 µM

**Q.** And the inhibition of growth at 5 µM [2]?
**A.** 55.8%

**Q.** And the IC50 [3]?
**A.** 2.65 µM

**Q.** And the inhibition of growth at 20 µM [4]?
**A.** 86.4%

**Q.** Which IC50 [1] does the source give for COc1cccc2c1C=[N+](c1ccc(C#N)cc1)CC2 here?
**A.** 3.56 µM

**Q.** What about the inhibition of growth at 5 µM [2] of the same molecule?
**A.** 36.4%

**Q.** What about the IC50 [3] of the same molecule?
**A.** 3.49 µM

**Q.** What about the inhibition of growth at 20 µM [4] of the same molecule?
**A.** 81.2%

**Q.** With Ic1ccccc1[N+]1=Cc2c(cccc2OCc2ccccc2)CC1 as the molecule, how does the IC50 [1] read?
**A.** 1.99 µM

**Q.** And the inhibition of growth at 5 µM [2]?
**A.** 78.2%

**Q.** What about the IC50 [3] of the same molecule?
**A.** 2.65 µM

**Q.** And the inhibition of growth at 20 µM [4]?
**A.** 91.5%

**Q.** What does the source list for CC(=O)Oc1cccc2c1C=[N+](c1ccccc1I)CC2?
**A.** inhibition of growth at 5 µM [2]: 15%; inhibition of growth at 20 µM [4]: 3.4%

**Q.** With COc1cccc2c1C=[N+](c1ccc(I)cc1F)CC2 as the molecule, how does the IC50 [1] read?
**A.** 7.98 µM

**Q.** And the inhibition of growth at 5 µM [2]?
**A.** 54.8%

**Q.** What about the IC50 [3] of the same molecule?
**A.** 3.64 µM

**Q.** What about the inhibition of growth at 20 µM [4] of the same molecule?
**A.** 89%

**Q.** Which IC50 [1] does the source give for COc1cccc2c1C=[N+](c1cccc(Br)c1)CC2 here?
**A.** 10.5 µM

**Q.** What about the inhibition of growth at 5 µM [2] of the same molecule?
**A.** 46.6%

**Q.** What about the IC50 [3] of the same molecule?
**A.** 4.62 µM

**Q.** And the inhibition of growth at 20 µM [4]?
**A.** 87.4%

**Q.** For COc1cccc2c1C=[N+](c1ccccc1Br)CC2, which IC50 [1] is on record?
**A.** 6.89 µM

**Q.** What about the inhibition of growth at 5 µM [2] of the same molecule?
**A.** 48.6%

**Q.** And the IC50 [3]?
**A.** 5.3 µM

**Q.** What about the inhibition of growth at 20 µM [4] of the same molecule?
**A.** 86.8%

**Q.** For COc1cccc2c1C=[N+](c1cccc([N+](=O)[O-])c1)CC2, which IC50 [1] is on record?
**A.** 13.7 µM

**Q.** And the inhibition of growth at 5 µM [2]?
**A.** 40.3%

**Q.** And the IC50 [3]?
**A.** 2.83 µM

**Q.** What about the inhibition of growth at 20 µM [4] of the same molecule?
**A.** 67.1%

**Q.** Which results are given for C[n+]1cc2c3c(ccc2c2ccc4cc5c(cc4c21)OCO5)OCO3 [SANGUINARIUM]?
**A.** IC50 [1]: 1.51 µM; inhibition of growth at 5 µM [2]: 88.5%; IC50 [3]: 0.53 µM; inhibition of growth at 20 µM [4]: 92.3%

**Q.** Which IC50 [1] does the source give for COc1cccc2c1C=[N+](c1cccc(C(F)(F)F)c1)CC2 here?
**A.** 2.03 µM

**Q.** And the inhibition of growth at 5 µM [2]?
**A.** 47.9%

**Q.** What about the IC50 [3] of the same molecule?
**A.** 9.61 µM

**Q.** And the inhibition of growth at 20 µM [4]?
**A.** 78.3%

**Q.** With COc1cccc2c1C=[N+](c1ccccc1Cl)CC2 as the molecule, how does the IC50 [1] read?
**A.** 7.21 µM

**Q.** What about the inhibition of growth at 5 µM [2] of the same molecule?
**A.** 47.6%

**Q.** What about the IC50 [3] of the same molecule?
**A.** 9.29 µM

**Q.** What about the inhibition of growth at 20 µM [4] of the same molecule?
**A.** 84%

**Q.** For COc1cccc2c1C=[N+](c1c(F)cccc1F)CC2, which IC50 [1] is on record?
**A.** 8.43 µM

**Q.** And the inhibition of growth at 5 µM [2]?
**A.** 48.9%

**Q.** And the IC50 [3]?
**A.** 3.9 µM

**Q.** And the inhibition of growth at 20 µM [4]?
**A.** 80.5%

**Q.** Which IC50 [1] does the source give for COc1cccc([N+]2=Cc3c(cccc3OC)CC2)c1 here?
**A.** 15.1 µM

**Q.** And the inhibition of growth at 5 µM [2]?
**A.** 22.8%

**Q.** And the IC50 [3]?
**A.** 22.8 µM

**Q.** What about the inhibition of growth at 20 µM [4] of the same molecule?
**A.** 66.2%

**Q.** For COc1cccc2c1C=[N+](c1ccccc1[N+](=O)[O-])CC2, which inhibition of growth at 5 µM [2] is on record?
**A.** 10.5%

**Q.** What about the inhibition of growth at 20 µM [4] of the same molecule?
**A.** 3%

**Q.** For COc1cccc2c1C=[N+](c1ccc(C)cc1)CC2, which inhibition of growth at 5 µM [2] is on record?
**A.** 17.7%

**Q.** And the inhibition of growth at 20 µM [4]?
**A.** 4.7%

**Q.** Which inhibition of growth at 5 µM [2] does the source give for COc1cccc2c1C=[N+](c1cccc(O)c1)CC2 here?
**A.** 24.2%

**Q.** What about the inhibition of growth at 20 µM [4] of the same molecule?
**A.** 24.5%

**Q.** Which inhibition of growth at 5 µM [2] does the source give for COc1cccc2c1C=[N+](c1ccccc1O)CC2 here?
**A.** 0.6%

**Q.** And the inhibition of growth at 20 µM [4]?
**A.** 8.4%

**Q.** Which inhibition of growth at 5 µM [2] does the source give for COc1ccccc1[N+]1=Cc2c(cccc2OC)CC1 here?
**A.** 2.1%

**Q.** And the inhibition of growth at 20 µM [4]?
**A.** 15%

**Q.** What does the source list for CCOc1cccc2c1C=[N+](c1ccccc1I)CC2?
**A.** inhibition of growth at 5 µM [2]: 49.7%; inhibition of growth at 20 µM [4]: 82.2%

**Q.** Which inhibition of growth at 5 µM [2] does the source give for COc1cccc2c1C=[N+](c1ccc(Cl)cc1)CC2 here?
**A.** 23.1%

**Q.** What about the inhibition of growth at 20 µM [4] of the same molecule?
**A.** 12.3%

**Q.** With COc1cccc2c1C=[N+](c1ccccc1C)CC2 as the molecule, how does the inhibition of growth at 5 µM [2] read?
**A.** 3.4%

**Q.** What about the inhibition of growth at 20 µM [4] of the same molecule?
**A.** 30.5%

**Q.** With Oc1cccc2c1C=[N+](c1ccccc1I)CC2 as the molecule, how does the inhibition of growth at 5 µM [2] read?
**A.** 22.9%

**Q.** What about the inhibition of growth at 20 µM [4] of the same molecule?
**A.** 30.9%

**Q.** Which IC50 [1] does the source give for COc1cccc2c1C=[N+](c1cccc(C)c1)CC2 here?
**A.** 8.57 µM

**Q.** What about the inhibition of growth at 5 µM [2] of the same molecule?
**A.** 3.1%

**Q.** What about the inhibition of growth at 20 µM [4] of the same molecule?
**A.** 79.6%

**Q.** What does the source list for COc1ccc([N+]2=Cc3c(cccc3OC)CC2)cc1?
**A.** inhibition of growth at 5 µM [2]: 6.6%; inhibition of growth at 20 µM [4]: 0.7%

**Q.** With COc1cccc2c1C=[N+](c1ccc(O)cc1)CC2 as the molecule, how does the inhibition of growth at 5 µM [2] read?
**A.** 4.7%

**Q.** And the inhibition of growth at 20 µM [4]?
**A.** 5.4%
